# Results published in patent publication US7285569B2, “Tricycles, their manufacture and use as pharmaceutical agents” (Hoff Hoffmann-La Roche Inc., priority 2004, dated 2007).
# Tests used:
# Aurora A = molecular target: T1, Aurora A (Homo sapiens, UniProt O14965); assay: IC50 determination for inhibitors of Aurora A (96 MTP-ELISA); type: biochemical; settings: His4-tagged full-length Aurora A 250 ng/ml, PKB-GSK2 200 nM, ATP 4 μM, 90 min at room temperature; read-out: IC50 Aurora A kinase inhibition
# T1 construct: C-terminally Histidine4 (His4)-tagged Aurora A full-length protein
# T1 sequence (O14965 1-403): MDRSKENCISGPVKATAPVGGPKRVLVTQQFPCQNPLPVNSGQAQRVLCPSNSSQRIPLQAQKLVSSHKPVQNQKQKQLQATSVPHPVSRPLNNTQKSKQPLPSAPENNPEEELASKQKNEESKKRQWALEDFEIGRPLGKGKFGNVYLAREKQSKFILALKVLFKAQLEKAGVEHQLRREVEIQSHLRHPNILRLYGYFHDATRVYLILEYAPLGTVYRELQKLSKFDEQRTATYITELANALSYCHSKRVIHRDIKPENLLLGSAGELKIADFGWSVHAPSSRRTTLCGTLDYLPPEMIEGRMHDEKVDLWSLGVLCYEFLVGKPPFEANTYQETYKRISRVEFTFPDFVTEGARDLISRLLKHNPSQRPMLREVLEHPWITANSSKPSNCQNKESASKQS
# Description: IC50 Determination for Inhibitors of Aurora A
# Aurora A is a serine threonine kinase involved in spindle assembly and chromosome segregation.
# The assay is a typically ELISA-type assay where biotinylated substrate (PKB-GSK2) is phosphorylated. Phosphorylation is detected by peroxidase (POD) labelled polyclonal antibody (PAK<M-Ig>S-IgG-POD) and phosphopeptide monoclonal antibody (Mab) (MAK<P-GSK>M-27E5-IgG). The assay is validated for IC50-determination.
# Aurora A-His-4 C-terminally Histidine4 (His4)-tagged Aurora A full-length protein, stock solution 0.7 mg/ml, final conc.: 250 ng/ml
# PKB-GSK2 biotinylated peptide derived from human GSK3-alpha sequence (Biotin-SGRARTSSFAEPGG-CONH2), stock solution 600 μM, final conc.: 200 nM
# ATP Adenosine-5′-triphosphate 1 mM, diluted in kinase buffer, (Roche Diagnostics GmbH, Cat. No.: 127531-001,), final conc.: 4 μM
# Kinase buffer 50 mM TRIS, 10 mM MgCl2, 1 mM DTT, 0.1% Tween 20, pH 7.8
# This assay is performed in 96-well format for IC50 determination with 5 samples (each with 8 concentrations by twofold testing), 100 μl incubation volume and the following plate layout:
# Step/Action 1. Sample preparation: add 24 μl per well samples (descending sequence) diluted in kinase buffer to assay plate (final conc. for DMSO 1%). 2. Add directly 16 μl Aurora-A-his-4 diluted in kinase buffer to assay plate. 3. Add directly 40 μl per well PKB-GSK2/ATP mixture to assay plate, (final conc.: Aurora A=250 ng/ml, GSK2=200 nM, ATP=4 μM). Negative control: without ATP. 4. Incubate assay plate for exactly 90 min at room temperature. 5. Stop reaction by adding 20 μl EDTA in all wells. 6. Wash assay plate 3× with 200 μl washing buffer per well. 7. Add 100 μl MAK<P-GSK>M27E5-IgG (1:10000) and PAK<M-Ig>S-IgG-POD (1:6000) dissolved in 3% BSA/PBS-T to assay plate per well. 8. Incubate assay plate for 60 min at room temperature. 9. Wash assay plate 3× with 200 μl washing buffer per well 10. Add 100 μl ABTS solution to assay plate per well, incubate for approx. 4 min at RT on MTP shaker. 11. Measure absorption at 405/492 nm. 12. Calculate % inhibition as: (1−(Esample−ENC)/(EPC−ENC))×100 13. Calculate IC50 using a non-linear curve fit (XLfit software (ID Business Solution Ltd., Guilford, Surrey, UK))
# HCT 116 cells = assay: CellTiter-Glo assay in HCT 116 cells (antiproliferative activity); type: cell-based; settings: HCT 116 human colon carcinoma cells, 5 days (120 h) incubation, CellTiter-Glo luminescence
# Description: Antiproliferative Activity
# CellTiter-Glo™ Assay in HCT 116 Cells
# The CellTiter-Glo™ Luminescent Cell Viability Assay (Promega) is a homogeneous method of determining the number of viable cells in culture based on quantitation of the ATP present, which signals the presence of metabolically active cells.
# HCT 116 cells (human colon carcinoma, ATCC-No. CCI-247) were cultivated in RPMI 1640 medium with GlutaMAX™ I (Invitrogen, Cat-No. 61870-010), 2.5% Fetal Calf Serum (FCS, Sigma Cat-No. F4135 (FBS)); 100 Units/ml penicillin/100 μg/ml streptomycin (=Pen/Strep from Invitrogen Cat. No. 15140). For the assay the cells were seeded in 384 well plates, 1000 cells per well, in the same medium. The next day the test compounds were added in various concentrations ranging from 30 μM to 0.0015 μM (10 concentrations, 1:3 diluted). After 5 days the CellTiter-Glo™ assay was done according to the instructions of the manufacturer (CellTiter-Glo™ Luminescent Cell Viability Assay, from Promega). In brief: the cell-plate was equilibrated to room temperature for approximately 30 minutes and than the CellTiter-Glo™ reagent was added. The contents were carefully mixed for 15 minutes to induce cell lysis. After 45 minutes the luminescent signal was measured in Victor 2, (scanning multiwell spectrophotometer, Wallac).
# Medium: RPMI 1640 with GlutaMAX™ I (Invitrogen, Cat-Nr. 61870), 5% FCS (Sigma Cat.-No. F4135), Pen/Strep (Invitrogen, Cat No. 15140).
# HCT116 (ATCC-No. CCI-247): 1000 cells in 60 μl per well of 384 well plate (Greiner 781098, μClear-plate white)
# After seeding incubate plates 24 h at 37° C., 5% CO2
# 2nd. Day: Induction (Treatment with Compounds, 10 Concentrations):
# In order to achieve a final concentration of 30 μM as highest concentration 3.5 μl of 10 mM compound stock solution were added directly to 163 μl media. Then step e) of the dilution procedure described below, was followed.
# In order to achieve the second highest to the lowest concentrations, a serial dilution with dilution steps of 1:3 was followed according to the procedure (a-e) as described here below: • for the second highest concentration add 10 μl of 10 mM stock solution of compound to 20 μl dimethylsulfoxide (DMSO) • dilute 8×1:3 (always 10 μl to 20 μl DMSO) in this DMSO dilution row (results in 9 wells with concentrations from 3333.3 μM to 0.51 μM) • dilute each concentration 1:47.6 (3.5 μl compound dilution to 163 μl media) • add 10 μl of every concentration to 60 μl media in the cell plate resulting in final concentration of DMSO: 0.3% in every well and resulting in 10 final concentration of compounds ranging from 30 μM to 0.0015 μM. • Each compound is tested in triplicate. • Incubate 120 h (5 days) at 37° C., 5% CO2 Analysis:
# Add 30 μl CellTiter-Glo™ Reagent (prepared from CellTiter-Glo™ Buffer and CellTiter-Glo™ Substrate (lyophilized) purchased from Promega) per well, • shake 15 minutes at room temperature • incubate further 45 minutes at room temperature without shaking Measurement:
# Victor 2 scanning multiwell spectrophotometer (Wallac), Luminescence mode (0.5 sec/read, 477 nm)
# Determine IC50 using a non-linear curve fit (XLfit software (ID Business Solution Ltd., Guilford, Surrey, UK))
IC50 (Aurora A),IC50 (HCT 116 cells),SMILES
500 to 1500 nM,100 to 10000 nM,"CCCN1C(=O)C(C)(C)c2cc3[nH]c(-c4cc(C(F)(F)F)n[nH]4)nc3cc21 [Example 41, 7,7-Dimethyl-5-propyl-2-(5-trifluoromethyl-2H-pyrazol-3-yl)-5,7-dihydro-1H-imidazo[4,5-f]indol-6-one]"
10 to 500 nM,100 to 10000 nM,"Cc1cc(-c2nc3cc4c(cc3[nH]2)NC(=O)C42CCCC2)[nH]n1 [Example 7, 2-(5-Methyl-2H-pyrazol-3-yl)-spiro-5,7-dihydro[cyclopentane-1′,7-imidazo[4,5-f]indol]-6(3H)-one]"
